{
  "source": "PubChem BioAssay (NCI)",
  "note": "Where “and” joins values, the source holds several entries; their conditions need not be identical. Identical values can stand only once.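 Results reflect a 48-hour exposure of cells in 96-well plates to compound at five concentrations. GI50: concentration for 50% inhibition of growth. At the TGI there is no net growth.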",
  "data": [
    {"tested_on": "HL-60(TB) leukemia", "experiment": "NCI-60 cell line screen, 48 h", "units": {"TGI": "µM", "GI50": "µM"}, "values": [
      {"smiles": "CN/N=C(/CCN1CCCC1)CC(c1ccccc1)c1c(O)c2ccccc2oc1=O", "note": "(stereo not given)", "TGI": "> 100"},
      {"smiles": "COc1ccc(OC)c(/C=C/C(=O)N/N=C/c2ccc(Cl)cc2)c1", "GI50": 0.0785, "TGI": 0.483},
      {"smiles": "O=C1c2ccccc2-c2c1c1ccccc1c(=O)n2Cc1ccccc1", "TGI": "> 100"},
      {"smiles": "CCN(CC)c1sc(N(CC)CC)c2c1SSSSS2", "GI50": 3.08, "TGI": "> 100"},
      {"smiles": "O=C(c1cccc(O)c1O)c1cn(Cc2ccc(F)cc2)c2cccc(O)c12", "GI50": 1.36, "TGI": 6.93},
      {"smiles": "Nc1ncc(-c2cnn(CCO)c2)c2scc(-c3ccc(NC(=O)Nc4cccc(F)c4)cc3)c12", "GI50": 0.499, "TGI": 5.09},
      {"smiles": "COc1cc(C2=NN(C(C)=O)C(c3ccc(OC(C)=O)cc3OC(C)=O)O2)c(OC(C)=O)c2ccccc12", "note": "(stereo not given)", "GI50": 0.671, "TGI": 2.94},
      {"smiles": "COC(=O)Nc1nc2ccc(Oc3ccc(NC(=O)Nc4ccccc4)cc3)cc2[nH]1", "GI50": 0.0654, "TGI": 0.295},
      {"smiles": "O=C1c2c(Br)sc(Br)c2C(NC(=O)C(F)(F)F)C1O", "note": "(stereo not given)", "TGI": "> 100"},
      {"smiles": "CCN(CC)CCCC(C)Nc1c(C)cnc2cc(Cl)c(C)cc12", "note": "(stereo not given)", "GI50": 3.19, "TGI": 21.2},
      {"smiles": "CC(=O)OC1CC(O)C23COC(O)C1(C)C2CC(O)C1(C)C3C(=O)C(O)C2(C)C(c3ccoc3)CC3OC321", "note": "(stereo not given)", "GI50": "< 0.01", "TGI": "> 100"},
      {"smiles": "COc1ccc(C(C)c2cc3c(cc2OC)OCO3)cc1", "note": "(stereo not given)", "TGI": 2.87},
      {"smiles": "CCc1[nH]c(=O)nc(N)c1-c1ccc(N2CCCCC2)c([N+](=O)[O-])c1", "TGI": "> 100"},
      {"smiles": "COC(=O)C(=O)C(C(=O)C(=O)Nc1ccccc1C(N)=O)c1nc2ccc(Cl)cc2[nH]c1=O", "note": "(stereo not given)", "TGI": "> 100"},
      {"smiles": "CCC#CC[C@H]1C/C=C2/C(=O)C=C[C@@H]2C/C=C\\CCCC(=O)O1", "GI50": 1.07, "TGI": 4.23},
      {"smiles": "CCN(CC)CCN1CC(O)=C(c2nc(-c3ccc(Cl)cc3)cs2)C1=N", "GI50": 1.5, "TGI": 3.5},
      {"smiles": "COc1cc(OC)c(/C=C/C(=O)c2c(OC)cccc2OC)c(OC)c1", "GI50": 0.348, "TGI": 1.82}
    ]},
    {"tested_on": "LOX IMVI melanoma", "experiment": "NCI-60 cell line screen, 48 h", "units": {"GI50": "µM"}, "values": [
      {"smiles": "CN(C)CCCn1c2c(c3ccccc3c1=O)C(=O)c1ccccc1-2", "GI50": 0.937, "TGI": "3.19 µM"},
      {"smiles": "COc1ccc2c(c1)C=C([N+](=O)[O-])C(C1OC(C)(C)OC1C1COC(C)(C)O1)O2", "note": "(stereo not given)", "TGI": "2.92 µM"},
      {"smiles": "CC(=O)OC1Oc2ccccc2-c2oc(=O)c(-c3cc4ccc(N(C)C)cc4oc3=O)cc21", "note": "(stereo not given)", "GI50": 10.4, "TGI": "23 µM"},
      {"smiles": "CCC1(O)C(=O)OCc2c1cc1n(c2=O)Cc2cc3ccc(C=O)cc3nc2-1", "note": "(stereo not given)", "GI50": 0.403, "TGI": "7.8 µM and 5.58 µM"},
      {"smiles": "COc1ccc2c(c1)C(=O)c1c-2n(CCCn2ccnc2)c(=O)c2ccccc12", "GI50": 0.179, "TGI": "0.835 µM"},
      {"smiles": "COc1cc2oc(-c3ccc(O)cc3)cc(=O)c2c(OC)c1OC", "TGI": "> 100 µM"},
      {"smiles": "Fc1cc(F)c(COc2cc(Cn3cnc4c(Cl)nc(Cl)nc43)ccc2C23CC4CC(CC(C4)C2)C3)cc1F", "GI50": 1.76, "TGI": "3.91 µM"},
      {"smiles": "CC/C=C\\C[C@@H]1C/C=C2/C(=O)C=C[C@H]2C/C=C\\CCCC(=O)O1", "GI50": 0.145, "TGI": "0.323 µM"},
      {"smiles": "NC(=S)N/N=C/c1ccc(OC(=O)COc2ccc(Cl)cc2)cn1", "GI50": 3.18, "TGI": "> 100 µM"},
      {"smiles": "O=C(N/N=C/c1cccc(O)c1O)c1ccccc1", "GI50": 0.511, "TGI": "> 100 µM"},
      {"smiles": "c1ccc(C2=NNC3c4ccccc4-c4ccccc4N3C2)cc1", "note": "(stereo not given)", "TGI": "> 100 µM"},
      {"smiles": "CN/N=C(/CCN1CCCC1)CC(c1ccccc1)c1c(O)c2ccccc2oc1=O", "note": "(stereo not given)", "TGI": "> 100 µM"},
      {"smiles": "COc1ccc(OC)c(/C=C/C(=O)N/N=C/c2ccc(Cl)cc2)c1", "GI50": 0.115, "TGI": "> 100 µM"},
      {"smiles": "O=C1c2ccccc2-c2c1c1ccccc1c(=O)n2Cc1ccccc1", "TGI": "> 100 µM"},
      {"smiles": "CCN(CC)c1sc(N(CC)CC)c2c1SSSSS2", "GI50": 1.01, "TGI": "3.31 µM"},
      {"smiles": "O=C(c1cccc(O)c1O)c1cn(Cc2ccc(F)cc2)c2cccc(O)c12", "GI50": 2.58, "TGI": "16.1 µM"},
      {"smiles": "COc1cc(C2=NN(C(C)=O)C(c3ccc(OC(C)=O)cc3OC(C)=O)O2)c(OC(C)=O)c2ccccc12", "note": "(stereo not given)", "GI50": 0.374, "TGI": "11.7 µM"},
      {"smiles": "COC(=O)Nc1nc2ccc(Oc3ccc(NC(=O)Nc4ccccc4)cc3)cc2[nH]1", "GI50": 0.178, "TGI": "> 9.6 µM"},
      {"smiles": "O=C1c2c(Br)sc(Br)c2C(NC(=O)C(F)(F)F)C1O", "note": "(stereo not given)", "TGI": "44.5 µM"},
      {"smiles": "CCN(CC)CCCC(C)Nc1c(C)cnc2cc(Cl)c(C)cc12", "note": "(stereo not given)", "GI50": 2.17, "TGI": "10.7 µM"},
      {"smiles": "CC(=O)OC1CC(O)C23COC(O)C1(C)C2CC(O)C1(C)C3C(=O)C(O)C2(C)C(c3ccoc3)CC3OC321", "note": "(stereo not given)", "GI50": "< 0.01", "TGI": "12.5 µM"},
      {"smiles": "COc1ccc(C(C)c2cc3c(cc2OC)OCO3)cc1", "note": "(stereo not given)", "TGI": "27.3 µM"},
      {"smiles": "CCc1[nH]c(=O)nc(N)c1-c1ccc(N2CCCCC2)c([N+](=O)[O-])c1", "TGI": "> 100 µM"},
      {"smiles": "COC(=O)C(=O)C(C(=O)C(=O)Nc1ccccc1C(N)=O)c1nc2ccc(Cl)cc2[nH]c1=O", "note": "(stereo not given)", "TGI": "> 100 µM"},
      {"smiles": "CCC#CC[C@H]1C/C=C2/C(=O)C=C[C@@H]2C/C=C\\CCCC(=O)O1", "GI50": 0.698, "TGI": "1.5 µM"},
      {"smiles": "CCN(CC)CCN1CC(O)=C(c2nc(-c3ccc(Cl)cc3)cs2)C1=N", "GI50": 1.83, "TGI": "3.43 µM"},
      {"smiles": "COc1cc(OC)c(/C=C/C(=O)c2c(OC)cccc2OC)c(OC)c1", "GI50": 0.566, "TGI": "> 100 µM"}
    ]},
    {"tested_on": "M14 melanoma", "experiment": "NCI-60 cell line screen, 48 h", "units": {"GI50": "µM"}, "values": [
      {"smiles": "CN(C)CCCn1c2c(c3ccccc3c1=O)C(=O)c1ccccc1-2", "GI50": 3.66, "TGI": "17.1 µM"},
      {"smiles": "COc1ccc2c(c1)C=C([N+](=O)[O-])C(C1OC(C)(C)OC1C1COC(C)(C)O1)O2", "note": "(stereo not given)", "TGI": "6.15 µM"},
      {"smiles": "CN(C)CCNC(=O)c1cccc(C(=O)Nc2ccccc2)c1[N+](=O)[O-]", "TGI": "> 100 µM"},
      {"smiles": "CC(=O)OC1Oc2ccccc2-c2oc(=O)c(-c3cc4ccc(N(C)C)cc4oc3=O)cc21", "note": "(stereo not given)", "GI50": 17.9, "TGI": "66.1 µM"},
      {"smiles": "CCC1(O)C(=O)OCc2c1cc1n(c2=O)Cc2cc3ccc(C=O)cc3nc2-1", "note": "(stereo not given)", "GI50": 1.44, "TGI": "50 µM and 19.2 µM"},
      {"smiles": "COc1cc2oc(-c3ccc(O)cc3)cc(=O)c2c(OC)c1OC", "TGI": "> 100 µM"},
      {"smiles": "CC/C=C\\C[C@@H]1C/C=C2/C(=O)C=C[C@H]2C/C=C\\CCCC(=O)O1", "GI50": 0.237, "TGI": "1.03 µM"},
      {"smiles": "NC(=S)N/N=C/c1ccc(OC(=O)COc2ccc(Cl)cc2)cn1", "GI50": 3.51, "TGI": "15.6 µM"},
      {"smiles": "O=C(N/N=C/c1cccc(O)c1O)c1ccccc1", "GI50": 0.695, "TGI": "11.5 µM"},
      {"smiles": "c1ccc(C2=NNC3c4ccccc4-c4ccccc4N3C2)cc1", "note": "(stereo not given)", "TGI": "> 100 µM"},
      {"smiles": "CN/N=C(/CCN1CCCC1)CC(c1ccccc1)c1c(O)c2ccccc2oc1=O", "note": "(stereo not given)", "TGI": "> 100 µM"},
      {"smiles": "COc1ccc(OC)c(/C=C/C(=O)N/N=C/c2ccc(Cl)cc2)c1", "GI50": 0.0633, "TGI": "> 25.9 µM"},
      {"smiles": "O=C1c2ccccc2-c2c1c1ccccc1c(=O)n2Cc1ccccc1", "TGI": "> 100 µM"},
      {"smiles": "CCN(CC)c1sc(N(CC)CC)c2c1SSSSS2", "GI50": 1.45, "TGI": "3.23 µM"},
      {"smiles": "O=C(c1cccc(O)c1O)c1cn(Cc2ccc(F)cc2)c2cccc(O)c12", "GI50": 3.43, "TGI": "13.4 µM"},
      {"smiles": "Nc1ncc(-c2cnn(CCO)c2)c2scc(-c3ccc(NC(=O)Nc4cccc(F)c4)cc3)c12", "GI50": 0.193, "TGI": "3.31 µM"},
      {"smiles": "COc1cc(C2=NN(C(C)=O)C(c3ccc(OC(C)=O)cc3OC(C)=O)O2)c(OC(C)=O)c2ccccc12", "note": "(stereo not given)", "GI50": 0.582, "TGI": "7.15 µM"},
      {"smiles": "COC(=O)Nc1nc2ccc(Oc3ccc(NC(=O)Nc4ccccc4)cc3)cc2[nH]1", "GI50": 0.168, "TGI": "2.6 µM"},
      {"smiles": "O=C1c2c(Br)sc(Br)c2C(NC(=O)C(F)(F)F)C1O", "note": "(stereo not given)", "TGI": "48.2 µM"},
      {"smiles": "CCN(CC)CCCC(C)Nc1c(C)cnc2cc(Cl)c(C)cc12", "note": "(stereo not given)", "GI50": 1.76, "TGI": "3.19 µM"},
      {"smiles": "CC(=O)OC1CC(O)C23COC(O)C1(C)C2CC(O)C1(C)C3C(=O)C(O)C2(C)C(c3ccoc3)CC3OC321", "note": "(stereo not given)", "GI50": 0.0793, "TGI": "> 59.8 µM"},
      {"smiles": "COc1ccc(C(C)c2cc3c(cc2OC)OCO3)cc1", "note": "(stereo not given)", "TGI": "24.5 µM"},
      {"smiles": "CCc1[nH]c(=O)nc(N)c1-c1ccc(N2CCCCC2)c([N+](=O)[O-])c1", "TGI": "> 100 µM"},
      {"smiles": "COC(=O)C(=O)C(C(=O)C(=O)Nc1ccccc1C(N)=O)c1nc2ccc(Cl)cc2[nH]c1=O", "note": "(stereo not given)", "TGI": "> 100 µM"},
      {"smiles": "CCC#CC[C@H]1C/C=C2/C(=O)C=C[C@@H]2C/C=C\\CCCC(=O)O1", "GI50": 1.48, "TGI": "8.61 µM"},
      {"smiles": "COc1cc(OC)c(/C=C/C(=O)c2c(OC)cccc2OC)c(OC)c1", "GI50": 0.441, "TGI": "2.63 µM"}
    ]}
  ]
}
